Results published in publication PMC6437697 (Journal of Medicinal Chemistry, 2019).

How the values were obtained:
Assay in all cases: KINOMEscan
Format in all cases: binding
Settings in all cases: read-out: % control activity remaining
YANK3 = molecular target: T1, YANK3 (Homo sapiens, UniProt Q86UX6)
T1 construct: purchased Eurofins DiscoverX KINOMEscan

IRAK4 = molecular target: T2, IRAK4 (Homo sapiens, UniProt Q9NWZ3)
T2 construct: purchased Eurofins DiscoverX KINOMEscan
T2 sequence (Q9NWZ3 1-460): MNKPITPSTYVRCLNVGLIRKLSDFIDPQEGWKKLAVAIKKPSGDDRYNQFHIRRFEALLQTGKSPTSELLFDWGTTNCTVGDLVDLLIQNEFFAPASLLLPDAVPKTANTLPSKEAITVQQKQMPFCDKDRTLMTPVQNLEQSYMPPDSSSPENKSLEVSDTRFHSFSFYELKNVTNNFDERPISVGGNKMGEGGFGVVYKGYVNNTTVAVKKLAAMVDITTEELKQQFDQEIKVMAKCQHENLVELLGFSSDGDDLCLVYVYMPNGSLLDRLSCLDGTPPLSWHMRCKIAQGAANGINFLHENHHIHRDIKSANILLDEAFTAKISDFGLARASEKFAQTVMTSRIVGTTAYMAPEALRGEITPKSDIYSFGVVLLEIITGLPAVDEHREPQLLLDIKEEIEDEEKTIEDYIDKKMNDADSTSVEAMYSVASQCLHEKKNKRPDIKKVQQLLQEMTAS

PIK3CB = molecular target: T3, PIK3CB (Homo sapiens, UniProt P42338)
T3 construct: purchased Eurofins DiscoverX KINOMEscan

FAK = molecular target: T4, FAK (Homo sapiens, UniProt Q05397)
T4 construct: purchased Eurofins DiscoverX KINOMEscan
T4 sequence (Q05397 whole entry): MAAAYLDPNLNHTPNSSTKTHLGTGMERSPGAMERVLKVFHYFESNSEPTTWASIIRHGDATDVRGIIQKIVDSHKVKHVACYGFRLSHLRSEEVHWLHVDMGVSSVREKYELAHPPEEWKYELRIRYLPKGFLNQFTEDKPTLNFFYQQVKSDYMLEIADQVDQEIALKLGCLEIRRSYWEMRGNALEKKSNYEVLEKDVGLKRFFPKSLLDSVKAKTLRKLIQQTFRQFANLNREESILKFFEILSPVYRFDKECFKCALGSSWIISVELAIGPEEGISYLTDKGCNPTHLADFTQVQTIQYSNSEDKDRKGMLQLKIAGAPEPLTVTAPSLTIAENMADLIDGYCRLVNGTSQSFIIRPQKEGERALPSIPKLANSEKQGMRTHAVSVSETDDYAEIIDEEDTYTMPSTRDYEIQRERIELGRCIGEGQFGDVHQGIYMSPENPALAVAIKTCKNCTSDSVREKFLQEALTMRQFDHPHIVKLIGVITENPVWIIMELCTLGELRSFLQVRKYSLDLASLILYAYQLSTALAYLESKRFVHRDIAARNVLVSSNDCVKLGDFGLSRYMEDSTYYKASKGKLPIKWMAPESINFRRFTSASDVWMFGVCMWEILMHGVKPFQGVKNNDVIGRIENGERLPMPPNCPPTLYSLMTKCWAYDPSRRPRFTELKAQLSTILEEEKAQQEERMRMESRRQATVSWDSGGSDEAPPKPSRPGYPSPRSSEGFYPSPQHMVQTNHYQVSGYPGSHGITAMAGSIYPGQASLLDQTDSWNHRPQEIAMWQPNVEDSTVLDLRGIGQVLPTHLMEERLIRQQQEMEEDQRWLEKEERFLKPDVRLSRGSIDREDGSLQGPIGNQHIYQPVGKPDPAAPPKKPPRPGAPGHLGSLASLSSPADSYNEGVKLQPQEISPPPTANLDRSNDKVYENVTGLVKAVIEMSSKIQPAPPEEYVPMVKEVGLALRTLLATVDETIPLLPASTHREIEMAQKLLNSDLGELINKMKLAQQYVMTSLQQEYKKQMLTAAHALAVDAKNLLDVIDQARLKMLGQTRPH

CSNK1E = molecular target: T5, CSNK1E (Homo sapiens, UniProt P49674)
T5 construct: purchased Eurofins DiscoverX KINOMEscan
T5 sequence (P49674 whole entry): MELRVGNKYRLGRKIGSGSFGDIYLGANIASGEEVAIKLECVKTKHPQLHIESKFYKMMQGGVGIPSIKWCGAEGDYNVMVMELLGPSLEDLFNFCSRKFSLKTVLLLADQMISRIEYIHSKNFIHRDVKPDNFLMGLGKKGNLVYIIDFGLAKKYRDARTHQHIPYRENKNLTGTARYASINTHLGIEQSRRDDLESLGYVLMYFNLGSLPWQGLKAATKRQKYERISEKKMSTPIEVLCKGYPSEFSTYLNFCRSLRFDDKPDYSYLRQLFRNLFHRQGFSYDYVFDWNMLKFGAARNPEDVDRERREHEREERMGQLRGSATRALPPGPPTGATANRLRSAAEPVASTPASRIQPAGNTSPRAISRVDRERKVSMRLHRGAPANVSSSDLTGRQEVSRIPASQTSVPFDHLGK

OSR1 = molecular target: T6, OSR1 (Homo sapiens, UniProt O95747)
T6 construct: purchased Eurofins DiscoverX KINOMEscan
T6 sequence (O95747 whole entry): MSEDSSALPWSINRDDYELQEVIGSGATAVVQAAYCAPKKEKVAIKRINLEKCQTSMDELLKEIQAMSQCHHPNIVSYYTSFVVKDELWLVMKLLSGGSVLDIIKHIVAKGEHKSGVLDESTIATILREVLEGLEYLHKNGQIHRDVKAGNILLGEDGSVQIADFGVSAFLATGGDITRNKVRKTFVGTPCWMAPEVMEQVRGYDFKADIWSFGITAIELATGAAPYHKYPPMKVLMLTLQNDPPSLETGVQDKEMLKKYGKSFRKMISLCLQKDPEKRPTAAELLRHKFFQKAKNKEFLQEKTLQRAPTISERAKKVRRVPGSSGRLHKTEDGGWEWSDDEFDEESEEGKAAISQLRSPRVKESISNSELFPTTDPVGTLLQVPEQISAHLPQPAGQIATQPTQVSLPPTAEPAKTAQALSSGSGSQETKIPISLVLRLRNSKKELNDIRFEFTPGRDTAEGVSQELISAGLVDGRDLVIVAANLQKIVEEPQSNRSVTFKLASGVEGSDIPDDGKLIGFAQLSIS

CSF1R-autoinhibited = molecular target: T7, CSF1R-autoinhibited (Homo sapiens, UniProt P07333)
T7 construct: purchased Eurofins DiscoverX KINOMEscan
T7 sequence (P07333 539-972 limits assumed): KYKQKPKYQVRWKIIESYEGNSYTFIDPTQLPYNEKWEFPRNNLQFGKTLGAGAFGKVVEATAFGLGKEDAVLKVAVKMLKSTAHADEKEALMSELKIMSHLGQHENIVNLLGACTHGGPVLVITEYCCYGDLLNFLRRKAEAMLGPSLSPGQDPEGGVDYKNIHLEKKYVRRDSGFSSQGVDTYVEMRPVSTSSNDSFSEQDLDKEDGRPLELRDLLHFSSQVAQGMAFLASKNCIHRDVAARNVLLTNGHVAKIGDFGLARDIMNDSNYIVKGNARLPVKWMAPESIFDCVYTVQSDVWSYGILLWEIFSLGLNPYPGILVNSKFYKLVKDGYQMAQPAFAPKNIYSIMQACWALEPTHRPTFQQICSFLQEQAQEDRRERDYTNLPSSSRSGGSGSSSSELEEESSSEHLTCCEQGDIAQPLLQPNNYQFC

NEK4 = molecular target: T8, NEK4 (Homo sapiens, UniProt P51957)
T8 construct: purchased Eurofins DiscoverX KINOMEscan
T8 sequence (P51957 whole entry): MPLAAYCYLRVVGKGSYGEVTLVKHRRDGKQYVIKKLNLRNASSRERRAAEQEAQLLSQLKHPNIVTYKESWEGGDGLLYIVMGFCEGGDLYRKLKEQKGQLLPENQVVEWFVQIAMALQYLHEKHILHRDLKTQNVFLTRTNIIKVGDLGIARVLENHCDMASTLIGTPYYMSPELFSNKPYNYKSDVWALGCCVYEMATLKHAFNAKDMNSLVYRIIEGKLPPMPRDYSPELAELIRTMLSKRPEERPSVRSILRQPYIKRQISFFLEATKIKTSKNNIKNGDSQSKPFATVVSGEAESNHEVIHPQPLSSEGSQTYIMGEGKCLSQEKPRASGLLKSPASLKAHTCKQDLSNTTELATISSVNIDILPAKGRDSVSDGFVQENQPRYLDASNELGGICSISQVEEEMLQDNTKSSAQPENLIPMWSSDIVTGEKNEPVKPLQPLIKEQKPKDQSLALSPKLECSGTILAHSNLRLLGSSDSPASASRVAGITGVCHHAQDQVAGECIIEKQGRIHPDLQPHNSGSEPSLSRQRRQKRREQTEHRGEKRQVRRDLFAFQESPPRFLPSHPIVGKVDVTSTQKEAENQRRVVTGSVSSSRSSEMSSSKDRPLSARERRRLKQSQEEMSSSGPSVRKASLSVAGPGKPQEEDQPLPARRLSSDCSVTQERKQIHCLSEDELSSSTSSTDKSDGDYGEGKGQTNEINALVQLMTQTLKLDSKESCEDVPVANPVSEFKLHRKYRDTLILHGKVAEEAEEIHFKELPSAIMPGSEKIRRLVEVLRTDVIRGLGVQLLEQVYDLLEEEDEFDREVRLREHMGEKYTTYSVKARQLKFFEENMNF

CAMK4 = molecular target: T9, CAMK4 (Homo sapiens, UniProt Q16566)
T9 construct: purchased Eurofins DiscoverX KINOMEscan
T9 sequence (Q16566 whole entry, looked up): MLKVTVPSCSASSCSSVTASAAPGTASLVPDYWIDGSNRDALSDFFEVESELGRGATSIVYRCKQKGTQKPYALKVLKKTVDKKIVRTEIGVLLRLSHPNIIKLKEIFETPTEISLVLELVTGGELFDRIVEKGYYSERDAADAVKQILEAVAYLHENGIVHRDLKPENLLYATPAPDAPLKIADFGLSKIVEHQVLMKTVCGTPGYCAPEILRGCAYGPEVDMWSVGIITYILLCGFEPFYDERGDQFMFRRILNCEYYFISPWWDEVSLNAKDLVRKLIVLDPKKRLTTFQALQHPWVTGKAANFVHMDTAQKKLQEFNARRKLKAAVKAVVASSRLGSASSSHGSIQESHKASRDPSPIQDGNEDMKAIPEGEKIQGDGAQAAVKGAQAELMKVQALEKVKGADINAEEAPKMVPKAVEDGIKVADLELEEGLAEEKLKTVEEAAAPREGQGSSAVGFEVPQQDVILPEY

EPHB2 = molecular target: T10, EPHB2 (Homo sapiens, UniProt P29323)
T10 construct: purchased Eurofins DiscoverX KINOMEscan
T10 sequence (P29323 19-1055): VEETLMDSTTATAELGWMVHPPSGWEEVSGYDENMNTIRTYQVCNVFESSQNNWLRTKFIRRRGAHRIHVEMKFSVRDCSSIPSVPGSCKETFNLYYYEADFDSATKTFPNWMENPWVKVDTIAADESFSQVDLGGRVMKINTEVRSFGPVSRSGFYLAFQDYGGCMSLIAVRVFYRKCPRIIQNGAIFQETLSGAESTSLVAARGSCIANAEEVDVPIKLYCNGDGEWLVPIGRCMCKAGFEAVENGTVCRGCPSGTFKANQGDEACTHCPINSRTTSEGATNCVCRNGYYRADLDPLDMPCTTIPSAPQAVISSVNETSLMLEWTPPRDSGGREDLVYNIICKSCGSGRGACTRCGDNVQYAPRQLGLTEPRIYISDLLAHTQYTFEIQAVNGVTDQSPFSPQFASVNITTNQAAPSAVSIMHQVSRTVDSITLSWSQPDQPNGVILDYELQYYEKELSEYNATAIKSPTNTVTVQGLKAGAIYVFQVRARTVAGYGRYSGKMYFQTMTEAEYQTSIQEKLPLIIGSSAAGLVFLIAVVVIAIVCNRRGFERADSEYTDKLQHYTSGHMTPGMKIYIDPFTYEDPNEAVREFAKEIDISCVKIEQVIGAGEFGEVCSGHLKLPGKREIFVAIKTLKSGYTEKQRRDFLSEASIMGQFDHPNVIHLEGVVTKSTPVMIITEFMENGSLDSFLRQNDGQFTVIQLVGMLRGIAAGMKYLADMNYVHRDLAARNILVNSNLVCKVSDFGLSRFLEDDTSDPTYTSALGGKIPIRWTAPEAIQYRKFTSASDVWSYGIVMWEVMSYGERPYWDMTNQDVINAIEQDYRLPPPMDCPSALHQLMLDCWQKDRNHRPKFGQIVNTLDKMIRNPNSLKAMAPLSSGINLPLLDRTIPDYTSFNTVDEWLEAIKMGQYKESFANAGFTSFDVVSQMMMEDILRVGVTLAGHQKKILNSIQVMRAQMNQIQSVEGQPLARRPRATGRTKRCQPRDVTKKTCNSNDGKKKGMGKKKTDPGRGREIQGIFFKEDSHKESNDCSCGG

RIPK2 = molecular target: T11, RIPK2 (Homo sapiens, UniProt O43353)
T11 construct: purchased Eurofins DiscoverX KINOMEscan
T11 sequence (O43353 whole entry): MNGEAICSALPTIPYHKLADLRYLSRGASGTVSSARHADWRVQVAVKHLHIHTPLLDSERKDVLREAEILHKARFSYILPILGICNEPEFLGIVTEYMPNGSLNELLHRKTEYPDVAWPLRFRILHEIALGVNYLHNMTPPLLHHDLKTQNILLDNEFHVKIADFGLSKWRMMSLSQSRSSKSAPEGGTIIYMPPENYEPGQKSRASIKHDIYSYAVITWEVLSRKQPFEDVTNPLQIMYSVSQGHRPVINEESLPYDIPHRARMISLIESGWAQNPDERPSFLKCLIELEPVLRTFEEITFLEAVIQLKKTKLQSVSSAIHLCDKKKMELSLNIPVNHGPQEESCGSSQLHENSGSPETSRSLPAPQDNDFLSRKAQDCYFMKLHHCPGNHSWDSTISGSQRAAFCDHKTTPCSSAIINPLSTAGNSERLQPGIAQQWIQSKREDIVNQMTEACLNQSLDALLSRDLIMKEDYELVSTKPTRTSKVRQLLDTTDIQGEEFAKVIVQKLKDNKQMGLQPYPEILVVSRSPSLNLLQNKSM

T1 sequence (Q86UX6 whole entry): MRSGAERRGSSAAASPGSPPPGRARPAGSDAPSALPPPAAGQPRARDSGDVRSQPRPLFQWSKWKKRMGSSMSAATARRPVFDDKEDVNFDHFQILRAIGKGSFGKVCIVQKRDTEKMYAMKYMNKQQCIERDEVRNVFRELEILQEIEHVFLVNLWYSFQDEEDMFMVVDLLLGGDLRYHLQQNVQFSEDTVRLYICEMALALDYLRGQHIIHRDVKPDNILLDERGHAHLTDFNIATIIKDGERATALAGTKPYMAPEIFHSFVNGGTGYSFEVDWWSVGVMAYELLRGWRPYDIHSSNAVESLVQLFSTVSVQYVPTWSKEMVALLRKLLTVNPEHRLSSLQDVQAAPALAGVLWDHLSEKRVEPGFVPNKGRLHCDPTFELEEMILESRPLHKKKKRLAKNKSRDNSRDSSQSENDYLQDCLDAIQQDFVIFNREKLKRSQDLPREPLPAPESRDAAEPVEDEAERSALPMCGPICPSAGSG

Row | Structure (SMILES) | remaining binding at 1 µM (YANK3) [%] | remaining binding at 1 µM (IRAK4) [%] | remaining binding at 1 µM (PIK3CB) [%] | remaining binding at 1 µM (FAK) [%] | remaining binding at 1 µM (CSNK1E) [%] | remaining binding at 1 µM (OSR1) [%] | remaining binding at 1 µM (CSF1R-autoinhibited) [%] | remaining binding at 1 µM (NEK4) [%] | remaining binding at 1 µM (CAMK4) [%] | remaining binding at 1 µM (EPHB2) [%] | remaining binding at 1 µM (RIPK2) [%]
1 | Clc1cc(NCC2CC2)c2ncc(-c3ccc4[nH]ncc4c3)n2n1 [compound 2, 6-Chloro-N-(cyclopropylmethyl)-3-(1H-indazol-5-yl)imidazo[1,2-b]pyridazin-8-amine] | 100 | 92 | 82 | 91 | 71 | 79 | 98 | 99 | 100 | 83 | 88
2 | O=C(CN1CCOCC1)N[C@H]1CC[C@H](Nc2cc(Cl)nn3c(-c4ccc5[nH]ncc5c4)cnc23)CC1 [compound 26] | 99 | 85 | 93 | 100 | 44 | 99 | 91 | 100 | 100 | 94 | 61
3 | CN1CCC(CNc2cc(Cl)nn3c(-c4cc5nc(Nc6ccccc6)[nH]c5cc4F)cnc23)CC1 [compound 31, 6-Chloro-3-(6-fluoro-2-(phenylamino)-1H-benzo[d]imidazol-5-yl)-N-((1-methylpiperidin-4-yl)methyl)imidazo[1,2-b]pyridazin-8-amine] | 73 | 91 | 97 | 97 | 100 | 100 | 100 | 95 | 100 | 96 | 100
